We go through 22 molecules from patent EP4722213A1, “NITROGEN-CONTAINING FUNCTIONAL GROUP-SUBSTITUTED PYRIDAZINOPYRIDONE DERIVATIVE AND USE THEREOF” (Sichuan Huiyu Pharmaceutical Co., Ltd., priority 2023, dated 2024).

Molecules are shown by their SMILES.

The experiment has as its target T1, SOS1 (Homo sapiens, UniProt Q07889).
T1 sequence (Q07889 1-1333): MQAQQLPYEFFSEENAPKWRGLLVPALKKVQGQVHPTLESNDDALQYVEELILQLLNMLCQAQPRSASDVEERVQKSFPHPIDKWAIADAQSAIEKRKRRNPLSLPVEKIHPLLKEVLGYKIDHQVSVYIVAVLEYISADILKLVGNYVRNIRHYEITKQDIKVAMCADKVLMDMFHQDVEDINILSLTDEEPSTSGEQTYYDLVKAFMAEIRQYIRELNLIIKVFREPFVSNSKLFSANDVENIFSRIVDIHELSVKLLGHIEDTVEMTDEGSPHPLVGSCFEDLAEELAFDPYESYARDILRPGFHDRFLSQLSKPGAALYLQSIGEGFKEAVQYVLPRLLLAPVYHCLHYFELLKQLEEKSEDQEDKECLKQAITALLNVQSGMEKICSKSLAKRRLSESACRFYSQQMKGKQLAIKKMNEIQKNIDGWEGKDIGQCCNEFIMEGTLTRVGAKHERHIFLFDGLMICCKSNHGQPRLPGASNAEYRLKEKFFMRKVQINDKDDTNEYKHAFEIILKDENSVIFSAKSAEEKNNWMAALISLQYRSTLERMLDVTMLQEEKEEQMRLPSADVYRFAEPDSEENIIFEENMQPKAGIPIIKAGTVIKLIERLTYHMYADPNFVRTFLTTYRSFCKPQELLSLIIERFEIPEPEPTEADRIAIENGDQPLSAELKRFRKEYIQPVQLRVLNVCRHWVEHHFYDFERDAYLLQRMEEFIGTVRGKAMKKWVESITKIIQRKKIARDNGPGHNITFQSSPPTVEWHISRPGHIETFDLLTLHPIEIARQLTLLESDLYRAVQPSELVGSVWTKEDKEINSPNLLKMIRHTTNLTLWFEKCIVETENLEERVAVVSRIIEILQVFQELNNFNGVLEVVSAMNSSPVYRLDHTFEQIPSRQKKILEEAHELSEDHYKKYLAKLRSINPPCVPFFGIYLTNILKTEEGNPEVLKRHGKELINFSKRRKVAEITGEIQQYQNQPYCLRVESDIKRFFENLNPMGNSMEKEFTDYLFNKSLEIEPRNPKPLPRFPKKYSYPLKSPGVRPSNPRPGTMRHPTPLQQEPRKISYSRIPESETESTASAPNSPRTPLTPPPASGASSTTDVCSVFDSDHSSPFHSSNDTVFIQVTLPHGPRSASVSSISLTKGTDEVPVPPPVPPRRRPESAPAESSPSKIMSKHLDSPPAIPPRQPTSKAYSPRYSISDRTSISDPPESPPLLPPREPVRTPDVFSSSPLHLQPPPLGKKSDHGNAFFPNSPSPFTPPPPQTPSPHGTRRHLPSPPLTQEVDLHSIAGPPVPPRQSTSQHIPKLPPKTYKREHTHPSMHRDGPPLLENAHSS
Put plainly: biochemical.

`Cc1c(C#N)cccc1[C@@H](C)Nc1nnc(N2CCC(F)(F)C2)c2cc(=O)n(C3(C)CC3)cc12` [Example 69, (R)-3-(1-((1-(3,3-difluoropyrrolidin-1-yl)-6-(1-methylcyclopropyl)-7-oxo-6,7-dihydropyrido[3,4-d]pyridazin-4-yl)amino)ethyl)-2-methylbenzonitrile]: half-maximal inhibition (IC50) was put at 34.2 nM. Molecule `Cc1c(C#N)cccc1[C@@H](C)Nc1nnc(N2CCC2)c2cc(=O)n(C3(C)CC3)cc12` [Example 70, (R)-3-(1-((1-(azetidin-1-yl)-6-(1-methylcyclopropyl)-7-oxo-6,7-dihydropyrido[3,4-d]pyridazin-4-yl)amino)ethyl)-2-methylbenzonitrile] had an IC50 of 6.7 nM. For `CCN(CC)c1nnc(N[C@H](C)c2cccc(C#N)c2C)c2cn(C3(C)CC3)c(=O)cc12` [Example 71, (R)-3-(1-((1-(diethylamino)-6-(1-methylcyclopropyl)-7-oxo-6,7-dihydropyrido[3,4-d]pyridazin-4-yl)amino)ethyl)-2-methylbenzonitrile], inhibition was half-maximal at 30.8 nM (IC50). `Cc1c(C#N)cccc1[C@@H](C)Nc1nnc(N2CCS(=O)(=O)CC2)c2cc(=O)n(C3(C)CC3)cc12` [Example 72, (R)-3-(1-((1-(1,1-dioxidothiomorpholino)-6-(1-methylcyclopropyl)-7-oxo-6,7-dihydropyrido[3,4-d]pyridazin-4-yl)amino)ethyl)-2-methylbenzonitrile] registered an IC50 of 50.4 nM. In the case of `C[C@@H](Nc1nnc(N(C)C)c2cc(=O)n(C3CC3)cc12)c1cccc(C(F)F)c1F` [Example 76, (R)-6-cyclopropyl-4-((1-(3-(difluoromethyl)-2-fluorophenyl)ethyl)amino)-1-(dimethylamino) pyrido[3,4-d]pyridazin-7(6H)-one], the IC50 was 9.2 nM. `CC(=O)N1CCN(c2nnc(N[C@H](C)c3cccc(C(F)F)c3F)c3cn(C4(C)CC4)c(=O)cc23)CC1` [Example 79, (R)-1-(4-acetylpiperazin-1-yl)-4-((1-(3-(difluoromethyl)-2-fluorophenyl)ethyl)amino)-6-(1-methylcyclopropyl)pyrido[3,4-d]pyridazin-7(6H)-one] came in with an IC50 of 12.7 nM. `Cc1c(C#N)cccc1[C@@H](C)Nc1nnc(N2CCN(C)CC2)c2cc(=O)n(C3(C)CC3)cc12` [Example 82, (R)-2-methyl-3-(1-((6-(1-methylcyclopropyl)-1-(4-methylpiperazin-1-yl)-7-oxo-6,7-dihydropyrido[3,4-d]pyridazin-4-yl)amino)ethyl)benzonitrile] had an IC50 of 9 nM.

The molecule `CNc1nnc(N[C@H](C)c2cccc(C#N)c2C)c2cn(C3(C)CC3)c(=O)cc12` [Example 83, (R)-2-methyl-3-(1-((1-(methylamino)-6-(1-methylcyclopropyl)-7-oxo-6,7-dihydropyrido[3,4-d]pyridazin-4-yl)amino)ethyl)benzonitrile] registered an IC50 of 5.6 nM. The molecule `Cc1c(C#N)cccc1[C@@H](C)Nc1nnc(N(C)C)c2cc(=O)n(C3(C)CC3)cc12` [Example 84, (R)-3-(1-((1-(dimethylamino)-6-(1-methylcyclopropyl)-7-oxo-6,7-dihydropyrido[3,4-d]pyridazin-4-yl)amino)ethyl)-2-methylbenzonitrile] had an IC50 of 18.7 nM. Consider `Cc1c(C#N)cccc1[C@@H](C)Nc1nnc(N2CCC[C@H]2C)c2cc(=O)n(C3(C)CC3)cc12` [Example 85, 2-methyl-3-((R)-1-((6-(1-methylcyclopropyl)-1-((R)-2-methylpyrrolidin-1-yl)-7-oxo-6,7-dihydropyrido[3,4-d]pyridazin-4-yl)amino)ethyl)benzonitrile], for which the IC50 was found to be 11.7 nM.

As to `Cc1c([C@@H](C)Nc2nnc(N3CCN(C)CC3)c3cc(=O)n(C4CC4)cc23)cccc1C(F)(F)F` [Example 86, (R)-6-cyclopropyl-4-((1-(2-methyl-3-(trifluoromethyl)phenyl)ethyl)amino)-1-(4-methylpiperazin-1-yl)pyrido[3,4-d]pyridazin-7(6H)-one], the midpoint of inhibition, the IC50, lay at 3.6 nM. Regarding `Cc1c(C#N)cccc1[C@@H](C)Nc1nnc(N2CCN(C)CC2)c2cc(=O)n(C3CC3)cc12` [Example 87, (R)-3-(1-((6-cyclopropyl-1-(4-methylpiperazin-1-yl)-7-oxo-6,7-dihydropyrido[3,4-d]pyridazin-4-yl)amino)ethyl)-2-methylbenzonitrile], half-maximal inhibition (IC50) required 5.7 nM. Then `Cc1c([C@@H](C)Nc2nnc(N3CCN(C4CC4)CC3)c3cc(=O)n(C4(C)CC4)cc23)cccc1C(F)(F)F` [Example 92, (R)-1-(4-cyclopropylpiperazin-1-yl)-4-((1-(2-methyl-3-(trifluoromethyl)phenyl)ethyl)amino)-6-(1-methylcyclopropyl) pyrido[3,4-d]pyridazin-7(6H)-one], with 10.2 nM; and `Cc1c([C@@H](C)Nc2nnc(N3CCN(CC4CC4)CC3)c3cc(=O)n(C4(C)CC4)cc23)cccc1C(F)(F)F` [Example 93, (R)-1-(4-(cyclopropylmethyl)piperazin-1-yl)-4-((1-(2-methyl-3-(trifluoromethyl)phenyl)ethyl)amino)-6-(1-methylcyclopropyl) pyrido[3,4-d]pyridazin-7(6H)-one], with 5.4 nM; and `Cc1c([C@@H](C)Nc2nnc(N3CCN(C4CCC4)CC3)c3cc(=O)n(C4(C)CC4)cc23)cccc1C(F)(F)F` [Example 94, (R)-1-(4-cyclobutylpiperazin-1-yl)-4-((1-(2-methyl-3-(trifluoromethyl)phenyl)ethyl)amino)-6-(1-methylcyclopropyl) pyrido[3,4-d]pyridazin-7(6H)-one], with 7.3 nM. Then `Cc1c([C@@H](C)Nc2nnc(N3CCN(C(C)(C)C)CC3)c3cc(=O)n(C4(C)CC4)cc23)cccc1C(F)(F)F` [Example 95, (R)-1-(4-(tert-butyl)piperazin-1-yl)-4-((1-(2-methyl-3-(trifluoromethyl)phenyl)ethyl)amino)-6-(1-methylcyclopropyl) pyrido[3,4-d]pyridazin-7(6H)-one], with 6.8 nM; and `Cc1c([C@@H](C)Nc2nnc(N3CCN(C4CCCC4)CC3)c3cc(=O)n(C4(C)CC4)cc23)cccc1C(F)(F)F` [Example 96, (R)-1-(4-cyclopentylpiperazin-1-yl)-4-((1-(2-methyl-3-(trifluoromethyl)phenyl)ethyl)amino)-6-(1-methylcyclopropyl) pyrido[3,4-d]pyridazin-7(6H)-one], with 7.4 nM; and `Cc1c(C#N)cccc1[C@@H](C)Nc1nnc(N2CCN(C3CC3)CC2)c2cc(=O)n(C3CC3)cc12` [Example 99, (R)-3-(1-((6-cyclopropyl-1-(4-cyclopropylpiperazin-1-yl)-7-oxo-6,7-dihydropyrido[3,4-d]pyridazin-4-yl)amino)ethyl)-2-methylbenzonitrile], with 11.3 nM. The molecule `Cc1c(C#N)cccc1[C@@H](C)Nc1nnc(N2CCN(C3CCC3)CC2)c2cc(=O)n(C3CC3)cc12` [Example 100, (R)-3-(1-((1-(4-cyclobutylpiperazin-1-yl)-6-cyclopropyl-7-oxo-6,7-dihydropyrido[3,4-d]pyridazin-4-yl)amino)ethyl)-2-methylbenzonitrile] registered an IC50 of 10.9 nM. In turn, `Cc1c(C#N)cccc1[C@@H](C)Nc1nnc(N2CCN(C3CCCC3)CC2)c2cc(=O)n(C3CC3)cc12` [Example 101, (R)-3-(1-((1-(4-cyclopentylpiperazin-1-yl)-6-cyclopropyl-7-oxo-6,7-dihydropyrido[3,4-d]pyridazin-4-yl)amino)ethyl)-2-methylbenzonitrile] showed an IC50 of 8.9 nM.

For `Cc1c(C#N)cccc1[C@@H](C)Nc1nnc(N2CCN(CC3CC3)CC2)c2cc(=O)n(C3CC3)cc12` [Example 102, (R)-3-(1-((6-cyclopropyl-1-(4-(cyclopropylmethyl)piperazin-1-yl)-7-oxo-6,7-dihydropyrido[3,4-d]pyridazin-4-yl)amino)ethyl)-2-methylbenzonitrile], the IC50 amounted to 12.5 nM.

On to `C[C@@H](Nc1nnc(N2CCN(C3CC3)CC2)c2cc(=O)n(C3CC(F)(F)C3)cc12)c1cccc(C(F)F)c1F` [Example 103, (R)-6-(3,3-difluorocyclobutyl)-4-((1-(3-(difluoromethyl)-2-fluorophenyl)ethyl)amino)-1-(4-cyclopropylpiperazin-1-yl)pyrido[3,4-d]pyridazin-7(6H)-one], for which half-maximal inhibition (IC50) was put at 5.9 nM.
